{
  "source": "patent US11980625B2",
  "about": "“Ganaxolone for use in treating tuberous sclerosis complex” (Marinus Pharmaceuticals, Inc., priority 2019, dated 2024)",
  "key": {"[1]": {"tested_on": "adults with focal seizures", "test": "Clinical trial in adults with focal seizures", "type": "in vivo, human", "conditions": "daily dose of 1800 mg (900 mg twice a day)", "experimental": "Given the complexity and difficulties in treating TSC and TSC-related epilepsy, the inventors believed that a high dose of drug (e.g., ganaxolone) would be required for effective treatment. For example, in a clinical trial in adults with focal seizures, ganaxolone was administered at a daily dose of 1800 mg (administered as 900 mg twice a day), yet the clinical endpoint was not achieved. […] Without wishing to be bound by any particular theory or mechanism, it is believed that more frequent administration of ganaxolone (e.g., three time a day) but at a lower daily dose than was used previously, improves drug exposure by maintaining a ganaxolone serum level (e.g., trough levels) above a threshold level for longer periods of time resulting in effective treatment. For example, administering oral ganaxolone three times daily (or more) with a total daily dose of no more than 1800 mg, or no more than 1700 mg, or no more than 1600 mg, or no more than 1500 mg, or no more than 63/mg/kg/day of ganaxolone can produce a plasma concentration of ganaxolone of at least about 100 ng/ml for approximately 70% or greater for a 24 hour-day, and provide effective seizure reduction. Also, less ganaxolone is typically required to achieve the increased trough concentration of ganaxolone using three time per day (or more frequent) administration, which is also beneficial for the subject under treatment. […]"}, "[2]": {"test": "Auto-induction in animals", "type": "in vivo, mouse, rat, dogs"}, "[3]": {"test": "In vitro haemolysis and plasma compatibility", "parameters": "species or system human", "experimental": "When given IV to rats and dogs, the main dose limiting toxicity finding was sedation. The no observed adverse effect level (NOAEL) after IV dosing in rats for 14 days was established at 42 mg/kg/day for males and 30 mg/kg/day for females. The NOAEL in dog after administration of ganaxolone by IV bolus followed by continuous IV infusion for 28 days was 7.20 mg/kg/day, which corresponded to a steady-state concentration of approximately 330 ng/mL and 333 ng/mL. There were no findings in a local tolerance study in rabbits."}},
  "data": [
    {"smiles": "CC(=O)[C@H]1CC[C@H]2[C@@H]3CC[C@H]4C[C@](C)(O)CC[C@]4(C)[C@H]3CC[C@]12C", "note": "[Ganaxolone, 3α-hydroxy-3β-methyl-5α-pregnan-20-one]", "values": [
      {"measurement": "clinical endpoint", "setting": "[1]", "value": "not achieved"},
      {"measurement": "auto-induction", "setting": "[2]; dogs", "value": "no auto-induction"},
      {"measurement": "auto-induction", "setting": "[2]; mouse and rat", "value": "Auto-induction has also been observed"},
      {"measurement": "compatibility with human plasma", "setting": "[3]", "value": "compatible with human plasma"},
      {"measurement": "haemolysis", "setting": "[3]", "value": "did not cause haemolysis"}
    ]}
  ]
}
